Test results taken from patent US11660326B2, “Bacterial-binding peptides for treatment of infectious diseases and related inflammatory processes” (priority 2018, dated 2023).
Where two headings read alike, the source gives them in different places.

Assays:
[1] = Intrinsic tryptophan fluorescence binding, apparent Kd for Re-LPS; parameters: species or system Salmonella minnesota serotype Re 595; conditions: for Kd: PBS, peptide 10 μg/mL, Hill fit
Procedure: (§1) FIG. 4. Kd analysis of the LPS and LTA interaction with CD6-derived peptides and protein. The apparent Kd values for the binding of peptides and proteins in study to LPS and LTA determined by fluorescence emission of tryptophan residues are shown. Peptides/proteins (10 μg/mL) were titrated with or without increasing concentrations of Re-LPS or LTA in PBS. Peptide samples (with and without either Re-LPS or LTA) and blank samples (Re-LPS or LTA alone) were excited at 295 nm, and the emission spectra recorded from 300 to 400 nm. Results are expressed as the change in peptide fluorescence (AF) at the wavelength of the emission maxima (353 nm for the peptides and 337 nm for rshCD6 protein) in the presence and absence of either Re-LPS or LTA. Results are means±SD of 3 experiments. Peptide fluorescence changes at 353 nm were fitted to the Hill equation.
(§2) Intrinsicfluorescence experiments. To explore the ability of different peptides/proteins to bind LTA (Mr=14,000, from S. aureus) and rough LPS (Re-LPS, Mr=2500, from Salmonella minnesota serotype Re 595), binding studies were carried out in an AB2 spectrofluorimeter with a thermostated cuvette holder (±0.1° C.), using 5×5 mm path-length quartz cuvettes as described (Coya J M, et al., 2015, Natural Anti-Infective Pulmonary Proteins: In Vivo Cooperative Action of Surfactant Protein SP-A and the Lung Antimicrobial Peptide SP-BN, J Immunol 195:1628-36). Re-LPS concentration was assessed by quantification of 2-keto-3-deoxyoctulosonic acid (Garcia-Verdugo I, et al., 2003, Effect of hydroxylation and N187-linked glycosylation on molecular and functional properties of recombinant human surfactant protein A, Biochemistry 42:9532-42). Peptide/protein samples (10 μg/mL) were titrated with different amounts of a stock solution of either LTA or Re-LPS in phosphate buffered saline (PBS) pH 7.2, and the Trp fluorescence emission spectra recorded with excitation at 295 nm. The fluorescence intensity readings were corrected for the dilution caused by […]. Background intensities in peptide/protein-free samples due to LTA or Re-PS were subtracted from each recording. The apparent dissociation constant (Kd) of peptide/protein-ligand complexes were obtained by nonlinear least-squares fitting to the Hill equation of the change in peptide fluorescence at 353 nm with the amount of added LTA or Re-LPS (Garcia-Verdugo I, et al., 2003, Effect of hydroxylation and N187-linked glycosylation on molecular and functional properties of recombinant human surfactant protein A, Biochemistry 42:9532-42): ΔF/ΔFmax=[L]^n/([L]^n+Kd), where ΔF is the change in fluorescence intensity at 353 nm relative to the intensity of free peptide; ΔFmax is the change in fluorescence intensity at saturating LTA or Re-LPS concentrations; [L] is the molar concentration of free ligand; and n is the Hill coefficient.

[2] = Endotoxin adsorption on peptide/protein-coated Eupergit beads (LAL assay); conditions: 50 UI/mL LPS, 0-150 min, vs HSA- and rshCD5-coated controls
Procedure: FIG. 11. Endotoxin adsorption assays on immobilized CD6-derived peptides and proteins. Eupergit® beads coated with different CD6-derived peptides (PD2, PD3, and Pcons) (A) or proteins (rshCD5 and rshCD6) (B) were incubated for different periods of time (0, 30, 90 and 150 min) with a 50 UI/mL endotoxin solution. Limulus amoebocyte lysate activating activity (LAL activity) of supernatants was then monitored along time and the OD 405-620 nm represented. Beads coated with Human Serum Albumin (HSA) were used as negative controls. Shown are triplicates of a representative experiment from two independent performed. Statistical analysis was done by using the 2-tailed paired T test with 95% confidence interval (***, P<0.001).
Proteins or peptides (2.5 mg each) were immobilized via NH2 groups on macroporous acrylic EUPERGIT© beads (0.2 g; Röhm-Pharma GmbH, Germany) following a previously described protocol (Zimmermann M, et al., 1999, Endotoxin adsorbent based on immobilized human serum albumin. Clin Chem Lab Med 37:373-379). Peptide or protein-coated Eupergit® beads are obtained by incubation with stirring of the polymeric beads at room temperature with a solution of the peptides of the invention in sodium phosphate buffer 100 mM pH 8 for 24 hours. After incubation, the beads were washed 3 times with 3 M sodium chloride pH 7.0, 30 mM sodium phosphate buffer pH 4.0 and 30 mM sodium phosphate buffer pH 8.0. Finally, 154 mM sodium chloride solution pH 7.0 was added to the peptide or protein-coated beads.
LPS detection was performed by using the turbidimetric-kinetic Limulus Amebocyte Lysate (LAL) kit-QCL (50-650U, Lonza) following manufacturer's instructions. Protein/peptide-coated EUPERGIT® beads were incubated 1:1 (v:v) with the provided endotoxin solution (50 UI/mL) for different periods of time (0-150 min) at room temperature following manufacturer's instructions.

[3] = Intrinsic tryptophan fluorescence binding, apparent Kd for LTA; parameters: species or system S. aureus; conditions: for Kd: PBS, peptide 10 μg/mL, Hill fit
Procedure: as §1, §2

[4] = tested on: mouse splenocytes exposed to LPS; assay: LPS-induced cytokine release by mouse splenocytes; assay type: cell-based, C57BL/6 mice; conditions: LPS 0.5 μg/mL, 48 h, peptide 0.5, 5 and 20 μg/mL
Procedure: FIG. 6. Effect of CD6-derived peptides on in vitro LIPS-induced cytokine release by mouse splenocytes. Total spleen cell suspensions (2×10^5) from C57BL/6 mice (n=7) were stimulated in triplicate for 48 h with LPS (0.5 μg/mL), in the presence or absence of increasing concentrations (0.5, 5, and 20 μg/mL) of CD6-derived peptides (PD1, PD2, PD3, and Pcons). Cytokine levels in culture supernatants were determined by ELISA and results expressed in pg/mL as mean±SD of triplicates. Viability was >75% at 48 h in all experimental conditions. Statistical analysis was performed using a 2-tailed Mann-Whitney test, with confidence intervals of 95% (*, P<0.05; **, P<0.01; ***, P<0.001).
Spleens from 6-8 week old C57BL/6 mice (Charles River) were disaggregated by filtering through a cell strainer and, after erythrocyte lysis, cells were resuspended in RPMI 1640 with L-glutamine (Lonza) plus 10% fetal calf serum (BioWest), 100 U/mL penicillin, 100 μg/mL streptomycin and 50 μM 2-(3 Mercaptoethanol (Merck). Cells (2×10^5) were stimulated for 48 h (at 37° C. in a humidified atmosphere with 5% CO2) in U-bottomed 96-well plates (Biofil) containing LPS (0.5 μg/mL; E. coli O111:B4), in the presence or absence of increasing peptides (0.5-20 μg/mL). Culture supernatants were harvested and mouse cytokines measured by ELISA following manufacturer's instructions (BD Biosciences OptEIA sets).

Sequence | affinity / Kd for LPS, in words [1] | Kd [1] | affinity / Kd for LPS, in words ([1]; listed as PD2) | endotoxin levels (LAL assay) [2] | affinity / Kd for LTA, in words [3] | Kd [3] | affinity / Kd for LTA, in words ([3]; listed as PD2) | IL-1β release [4] | IL-6 release [4] | IL-10 release [4] | affinity / Kd for LPS, in words ([1]; listed as PD1) | affinity / Kd for LTA, in words ([3]; listed as PD1)
GRVEMLEHGEW [CD6.PD2] | lower than the prototypical DMBT1.pbs1 and CD6.cons peptides or the rshCD6 protein itself | 35 ± 2 nM | very high affinity | reduced endotoxin levels | lower than the prototypical DMBT1.pbs1 and CD6.cons peptides or the rshCD6 protein itself | 0.31 ± 0.04 nM | very high affinity | – | – | – | – | –
GQVEVHFRGVW (CD6.PD3) | – | – | – | reduced endotoxin levels | – | – | – | dose-dependent inhibitory effects | dose-dependent inhibitory effects | non-statistically significant dose-dependent increased release | – | –
GTVEVRLEASW [CD6.PD1] | lower than the prototypical DMBT1.pbs1 and CD6.cons peptides or the rshCD6 protein itself | 3.5 ± 0.3 nM | – | – | lower than the prototypical DMBT1.pbs1 and CD6.cons peptides or the rshCD6 protein itself | 0.39 ± 0.06 nM | – | – | – | – | very high affinity | very high affinity
